Assay results as given in patent US20230365488A1, “TRUXILLIC ACID MONOESTER-DERIVATIVES AS SELECTIVE FABP5 INHIBITORS AND PHARMACEUTICAL COMPOSITIONS AND USES THEREOF” (The Research Foundation for The State University of New York, priority 2020, published 2023).

Assays:
[1] = test system: HepG2 (human liver cancer) cells; assay: Cytotoxicity (MTT) assay, HepG2 (Example 5); assay type: cell-based; details: 72-hour incubation, 1% FBS
[2] = test system: PC-3 (human metastatic prostate cancer) cells; assay: Cytotoxicity (MTT) assay, PC-3 (Example 5); assay type: cell-based; details: 72-hour incubation, 1% FBS, read-out: PC3 IC50
FABP7 = FABP7 (Homo sapiens (Human), UniProt O15540); assay: FABP7 fluorescent probe displacement binding assay; details: average ± S.E. of at least three independent experiments
FABP5 = FABP5 (Homo sapiens (Human), UniProt Q01469); assay: FABP5 fluorescent probe displacement binding assay; details: for Ki: average ± S.E. of at least three independent experiments; for FABP3 Ki/FABP5 Ki: selectivity ratio FABP3 over FABP5
FABP3 = FABP3 (Homo sapiens (Human), UniProt P05413); assay: FABP3 fluorescent probe displacement binding assay; details: average ± S.E. of at least three independent experiments
[3] = test system: WI-38 (human normal lung fibroblast) cells; assay: Cytotoxicity (MTT) assay, WI-38 (Example 5); assay type: cell-based; details: 72-hour incubation, 1% FBS

Sequence of FABP3 (P05413 whole entry): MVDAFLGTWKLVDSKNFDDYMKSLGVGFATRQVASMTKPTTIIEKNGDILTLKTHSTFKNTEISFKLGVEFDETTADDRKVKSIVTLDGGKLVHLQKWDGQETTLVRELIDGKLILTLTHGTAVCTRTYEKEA
Sequence of FABP5 (Q01469 whole entry): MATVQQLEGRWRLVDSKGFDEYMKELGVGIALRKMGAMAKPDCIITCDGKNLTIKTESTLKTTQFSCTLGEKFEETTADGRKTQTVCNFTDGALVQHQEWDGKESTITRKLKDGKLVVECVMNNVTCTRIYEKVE
Sequence of FABP7 (O15540 whole entry): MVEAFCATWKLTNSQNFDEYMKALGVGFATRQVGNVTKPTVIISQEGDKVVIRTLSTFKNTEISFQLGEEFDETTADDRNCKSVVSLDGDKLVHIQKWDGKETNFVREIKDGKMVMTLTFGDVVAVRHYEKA

Compound | IC50 [1] [µM] | IC50 [2] [µM] | Ki (FABP7) [µM] | Ki (FABP5) [µM] | FABP3 Ki/FABP5 Ki (FABP5) | Ki (FABP3) [µM] | IC50 [3] [µM]
COc1ccccc1C1[C@@H](C(=O)O)[C@@H](c2ccccc2OC)[C@@H]1C(=O)Oc1cccc(-c2ccc(F)cc2)c1 (mixture of isomers) [Compound 1e, (±)-α-2,4-di (2-methoxyphenyl)-3-[3-(4-fluorophenyl)phenoxycarbonyl]cyclobutane-1-carboxylic acid] | 9.41 | 6.79 | 0.99 ± 0.53 | 1.03 ± 0.11 | 2.2 | 2.28 ± 0.36 | 27.3
COc1ccccc1C1[C@@H](C(=O)O)[C@@H](c2ccccc2OC)[C@@H]1C(=O)Oc1cccc(-c2cccc3c2OCCO3)c1 (mixture of isomers) [Compound 1g, (±)-α-3-[3-(2,3-dihydrobenzo[b][1,4]dioxin-5-yl)phenoxycarbonyl]-2,4-di(2-methoxyphanyl)cyclobutane-1-carboxylic acid] | 8.87 | 4.53 | 0.91 ± 0.03 | 0.41 ± 0.15 | 9.8 | 4.02 ± 1.04 | 49.8
O=C(O)[C@@H]1C(c2ccccc2)[C@@H](C(=O)Oc2ccccc2-c2ccc3c(c2)OCO3)[C@@H]1c1ccccc1 (mixture of isomers) [Compound 1i, (±)-α-3-[2-(benzo[d][1,3]dioxol-5-yl)phenoxycarbonyl]-2,4-di (2-dimethoxyphenyl)cyclobutane-1-dicarboxylic acid] |  |  | 0.32 ± 0.13 | 0.79 ± 0.18 | 1.4 | 1.13 ± 0.15 | 
COc1ccccc1C1[C@@H](C(=O)O)[C@@H](c2ccccc2OC)[C@@H]1C(=O)Oc1cccc(-c2ccc3c(c2)NC(=O)C3)c1 (mixture of isomers) [Compound 1j, (±)-α-2,4-di (2-methoxyphenyl)-3-[3-(2-oxoindolin-6-yl)phenoxycarbonyl]cyclobutane-1-carboxylic acid] |  |  |  | 1.06 ± 0.08 |  | 3.29 ± 0.45 | 
COc1ccccc1[C@@H]1[C@H](C(=O)O)[C@@H](c2ccccc2OC)[C@H]1C(=O)Oc1ccc2cc(-c3cncnc3)ccc2c1 (racemic) [Compound 1k, (±)-α-2,4-di (2-methoxyphenyl)-3-[7-(5-pyrimidine)naphthalen-2-yloxycarbonyl]cyclobutane-1-carboxylic acid] |  |  | 6.36 ± 1.04 | 1.3 ± 0.09 | 3.7 | 4.78 ± 0.18 | 
COc1ccccc1C1[C@@H](C(=O)O)[C@@H](c2ccccc2OC)[C@@H]1C(=O)OC1Cc2ccccc2C1 (mixture of isomers) [Compound 1l, (±)-α-3-(2,3-dihydro-1-inden-2-yloxycarbonyl)-2,4-di (2-methoxyphenyl)cyclobutane-1-carboxylic acid] | 45.5 | 48.9 | 53.8 ± 7.28 |  |  | 53.8 ± 7.28 | 63.7
COc1ccccc1C1[C@@H](C(=O)O)[C@@H](c2ccccc2OC)[C@@H]1C(=O)Oc1cccc(-c2ccc(C#N)cc2)c1 (mixture of isomers) [Compound 1p, (±)-3-(4′-cyano-1,1′-biphenyl-3-yloxycarbonyl)-2,4-di (2-methoxyphenyl)cyclobutane-1-carboxylic acid] |  |  | 3.16 ± 0.43 | 1.74 ± 0.08 | 2.7 | 4.64 ± 0.04 | 
COc1ccccc1C1[C@@H](C(=O)O)[C@@H](c2ccccc2OC)[C@@H]1C(=O)Oc1ccccc1-c1ccc2c(c1)OCCO2 (mixture of isomers) [Compound 1s, (±)-α-3-[2-(2,3-dihydrobenzo[b][1,4]dioxin-6-yl)phenoxycarbonyl]-2,4-bis(2-methoxyphenyl)cyclobutane-1-carboxylic acid] |  |  | 0.67 ± 0.15 | 2.81 ± 0.42 | 0.8 | 2.29 ± 0.56 | 
N#Cc1ccc(-c2ccccc2OC(=O)[C@H]2C(c3ccccc3)[C@@H](C(=O)O)[C@H]2c2ccccc2)cc1 (mixture of isomers) [Compound 2d, (±)-γ-3-(4′-cyano-1,1′-biphenyl]-2-yloxycarbonyl)-2,4-diphenylcyclobutane-1-carboxylic acid] |  |  | 0.95 ± 0.05 | 1.39 ± 0.07 | 4.1 | 5.78 ± 1.3 | 
COc1ccccc1[C@H]1[C@H](C(=O)O)[C@H](c2ccccc2OC)[C@@H]1C(=O)Oc1cccc(-c2ccc(F)cc2)c1 (racemic) [Compound 2e, (±)-γ-3-(4′-fluoro-1,1′-biphenyl-3-yl)oxycarbonyl-2,4-di (2-methoxyphenyl)cyclobutane-1-carboxylic acid] |  |  | 3.59 ± 0.24 | 1.77 ± 0.02 | 3.4 | 6.1 ± 1.34 | 
COc1ccccc1[C@H]1[C@H](C(=O)O)[C@H](c2ccccc2OC)[C@@H]1C(=O)Oc1cccc2ccccc12 (racemic) [Compound 2f, (±)-γ-2,4-di (2-methoxyphenyl)-3-(naphthalen-1-yloxycarbonyl)cyclobutane-1-carboxylic acid] |  |  | 1.45 ± 0.52 |  |  | 1.66 ± 0.45 | 
COc1ccccc1C1[C@@H](C(=O)O)[C@@H](c2ccccc2OC)[C@H]1C(=O)Oc1cccc(-c2ccc(C#N)cc2)c1 (mixture of isomers) [Compound 2g, (±)-γ-3-(4′-cyano-1,1′-biphenyl]-3-yloxycarbonyl)-2,4-di (2-methoxyphenyl)cyclobutane-1-carboxylic acid] |  |  | 9.11 ± 1.47 | 2.46 ± 0.19 | 11.3 | 27.9 ± 6.37 | 
COc1ccccc1C1[C@@H](C(=O)O)[C@@H](c2ccccc2OC)[C@H]1C(=O)Oc1cccc(-c2ccc3c(c2)OCCO3)c1 (mixture of isomers) [Compound 2k, (±)-γ-3-[3-(2,3-dihydrobenzo[b][1,4]dioxin-6-yl)phenoxycarbonyl]-2,4-di(2-methoxyphenyl)cyclobutane-1-carboxylic acid] |  |  | 5.12 ± 0.32 | 3.69 ± 0.65 | 2.2 | 8.18 ± 2.67 | 
COc1ccccc1C1[C@@H](C(=O)OC2Cc3ccccc3C2)[C@@H](c2ccccc2OC)[C@H]1C(=O)O (mixture of isomers) [Compound 2l, (±)-γ-3-(2,3-dihydro-1H-inden-2-yloxycarbonyl)-2,4-bis(2-methoxyphenyl)cyclobutane-1-carboxylic acid] |  |  | 5.14 ± 0.27 |  |  | 136 ± 16.4 | 
O=C(O)[C@H]1[C@H](c2ccccc2)[C@@H](C(=O)Oc2ccc3cc(-c4cncnc4)ccc3c2)[C@H]1c1ccccc1 (racemic) [Compound 2m, (±)-γ-2,4-diphenyl-3-[6-(pyrimidin-5-yl)naphthalen-2-yloxy)carbonyl]cyclobutane-1-carboxylic acid] |  |  | 4.19 ± 0.71 | 2.56 ± 0.17 | 0.51 | 1.3 ± 0.18 | 
O=C1CCc2cc(-c3cccc(OC(=O)[C@H]4[C@@H](c5ccccc5)[C@@H](C(=O)O)[C@@H]4c4ccccc4)c3)ccc2N1 (racemic) [Compound 2n, (±)-γ-3-[(3-(2-oxo-1,2,3,4-tetrahydroquinolin-6-yl)phenoxycarbonyl]-2,4-diphenylcyclobutane-1-carboxylic acid] |  |  | 3.49 ± 0.49 | 7.59 ± 1.11 | 0.54 | 4.07 ± 0.24 | 
O=C(O)[C@H]1[C@H](c2ccccc2)[C@H](C(=O)OCc2cccc3ccccc23)[C@H]1c1ccccc1 [Compound 1r, α-2,4-diphenyl-3-(1-naphthaylmethyl)cyclobutane-1-carboxylic acid] |  |  | 10.2 ± 1.42 | 2.64 ± 0.01 | 9.0 | 51.2 ± 5.71 | 
COc1ccccc1[C@H]1[C@H](C(=O)O)[C@H](c2ccccc2OC)[C@H]1C(=O)OCC1(F)c2ccccc2-c2ccccc21 [Compound 1t] |  |  | 7.72 ± 1.2 | 1.83 ± 0.27 | 14.2 | 25.9 ± 2.4 | 
O=C1CCc2ccc(-c3cccc(OC(=O)[C@H]4[C@@H](c5ccccc5)[C@H](C(=O)O)[C@@H]4c4ccccc4)c3)cc2N1 [Compound 1u] |  |  | 0.33 ± 0.01 | 0.59 ± 0.08 | 13.0 | 7.67 ± 0.71 | 
O=C(O)[C@H]1[C@@H](c2ccccc2)[C@H](C(=O)OC2Cc3ccccc3C2)[C@@H]1c1ccccc1 [Compound 1v] |  |  | 2.41 ± 0.09 |  |  | > 10 | 
O=C(O)[C@H]1[C@H](c2ccccc2)[C@H](C(=O)Oc2cccc3ccccc23)[C@H]1c1ccccc1 [Compound 1x] |  |  | 0.45 ± 0.07 |  |  | 2.7 ± 0.42 | 
O=C(O)[C@H]1[C@H](c2ccccc2)[C@H](C(=O)Oc2ccccc2-c2ccccc2)[C@H]1c1ccccc1 [Compound 1z] |  |  |  |  |  | 0.7 ± 0.42 | 
O=C(O)[C@@H]1[C@@H](c2ccccc2)[C@H](C(=O)OC2Cc3ccccc3C2)[C@H]1c1ccccc1 [Compound 3a, (±)-ε-3-[(2,3-dihydro-1H-inden-2-yl)oxycarbonyl]-2,4-diphenylcyclobutane-1-carboxylic acid] |  |  | 2.07 ± 0.09 |  |  | 4.75 ± 0.57 | 
O=C(O)[C@@H]1[C@@H](c2ccccc2)[C@H](C(=O)Oc2cccc(-c3ccccc3)c2)[C@H]1c1ccccc1 [Compound 3b, (±) -ε-3-(1,1′-biphenyl-3-yloxycarbonyl)-2,4-diphenylcyclobutane-1-carboxylic acid] |  |  | 2.15 ± 0.09 |  |  | 18.6 ± 0.73 | 
O=C(O)[C@@H]1[C@@H](c2ccccc2)[C@H](C(=O)Oc2cccc(-c3ccc4c(c3)OCCO4)c2)[C@H]1c1ccccc1 [Compound 3d, (±)-ε-3-[3-(2,3-dihydrobenzo[b][1,4]dioxin-6-yl)phenoxycarbonyl]-2,4-diphenylcyclobutane-1-carboxylic acid] |  |  | 1.49 ± 0.15 | 3.15 ± 0.28 | 2.5 | 7.84 ± 0.7 | 
COc1ccccc1[C@H]1[C@H](C(=O)O)[C@H](c2ccccc2OC)[C@@H]1C(=O)Oc1cccc(-c2ccc(F)cc2)c1 [Compound 3e, ε-2,4-diphenyl-3-(4-fluorophenyl)phenoxycarbonylcyclobutane-1-carboxylic acid] |  |  | 2.19 ± 0.04 | 3.4 ± 0.52 | 4.7 | 15.5 ± 1.91 | 
O=C(O)[C@@H]1[C@@H](c2ccccc2)[C@H](C(=O)Oc2cccc3ccccc23)[C@H]1c1ccccc1 [Compound 3g] | 36.9 | 10.6 | 0.38 ± 0.08 |  |  | 0.32 ± 0.03 | 54.2
